Experiment [1] addresses T1, HIV-1 protease (Q7S mutant form) (Human immunodeficiency virus type 1 group M subtype B, UniProt P04585, Q495S).
T1 construct: made in house
In words: HIV-1 Protease RET assay. The experiment is classed as biochemical. As to conditions: Ave. Ki (nM), RET assay, Q7S enzyme, Morrison tight binding fit. The method in brief:
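Ki values fitted with the Morrison tight-binding equation from steady-state RET cleavage (ex 340, em 490 nm) of 5 μM RE(EDANS)SQNYPIVQK(DABCYL)R. Buffer pH 4.8 acetate, 1M NaCl, 5 mM DTT, 1 mg/ml BSA, 10% DMSO; 2 nM Q7S mutant dimer, 37 °C, 12 min.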

In experiment [2] the test system is HIV-1 (HIV-1 RF, HIV-1 NL4-3) in CEM-SS / MT-2 cells. In words: Cytopathic effect (CPE) inhibition assay (XTT/MTT dye reduction). The experiment is classed as cell-based. The note with it: Human immunodeficiency virus 1, NL43; read-out: Ave CPE EC50. The method in brief: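 Readout is XTT reduction (A450, 4 h) after six days of culturing virus-infected (moi 0.025–0.819) or mock-infected CEM-SS/MT-2 cells, 2×10^4 per well, with half-log compound series. Antiviral EC50 and cytotoxic CC50 are relative to uninfected compound-free cells. Therapeutic index is CC50 divided by EC50.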
Background: Cytopathic effects are the visible damage that an infection or toxin causes in cultured cells.

pEC50: −log10 of the molar value.

As to `C=CCNC(=O)[C@H]1N(C(=O)[C@@H](O)[C@H](Cc2ccccc2)NC(=O)O[C@H]2CCOC2)CSC1(C)C` [Example B22, [(1S,2S)-3-((R)-4-Allylcarbamoyl-5,5-dimethyl-thiazolidin-3-yl)-1-benzyl-2-hydroxy-3-oxo-propyl]-carbamic acid (S)-(tetrahydro-furan-3-yl) ester], the inhibition constant (Ki) (as a rule, the dissociation constant of the complex between target and ligand, obtained from inhibition or displacement) in experiment [1] turned out to be 12 nM. The pEC50 (as a rule, the negative decadic logarithm of the EC50, by convention in mol/L) in experiment [2] is 6.61.
Taken in the same sequence, the figures for `C=CCNC(=O)[C@H]1N(C(=O)[C@@H](O)[C@H](Cc2ccccc2)NC(=O)COc2c(C)cccc2C)CSC1(C)C` [Example B23, (R)-3-{(2S,3S)-3-[2-(2,6-Dimethyl-phenoxy)-ethanoylamino]-2-hydroxy-4-phenyl-butanoyl}-5,5-dimethyl-thiazolidine-4-carboxylic acid allylamide] were 0.15 nM and 6.53.
`C=CCNC(=O)[C@H]1N(C(=O)[C@@H](O)[C@H](Cc2ccccc2)NC(=O)c2cccc3[nH]ncc23)CSC1(C)C` [Example B24, 1-H-indazole-4-carboxylic acid [3-(4-allylcarbamoyl-5,5-dimethyl-thiazolidin-3-yl)-1-benzyl-2-hydroxy-3-oxo-propyl]-amide] had a Ki in experiment [1] of 8.3 nM. The negative logarithm of the EC50 (pEC50) in experiment [2] was 6.29.
Taken in the same sequence, the figures for `C=CCNC(=O)[C@H]1N(C(=O)[C@@H](O)[C@H](Cc2ccccc2)NC(=O)CSc2nc[nH]n2)CSC1(C)C` [Example B25, (R)-3-{(2S,3S)-2-Hydroxy-4-phenyl-3-[2-(1H-[1,2,4]triazol-3-ylsulfanyl)-ethanoylamino]-butanoyl}-5,5-dimethyl-thiazolidine-4-carboxylic acid allylamide] were 21 nM and under 6.00.
Taken in the same sequence, the figures for `CC1(C)SCN(C(=O)[C@@H](O)[C@H](Cc2ccccc2)NC(=O)O[C@H]2CCOC2)[C@@H]1C(=O)NCC1CC1` [Example B26, {(1S,2S)-1-Benzyl-3-[(R)-4-(cyclopropylmethyl-carbamoyl)-5,5-dimethyl-thiazolidin-3-yl]-2-hydroxy-3-oxo-propyl}-carbamic acid (S)-(tetrahydro-furan-3-yl) ester] were 2.1 nM and 6.46.
`Cc1cccc(C)c1OCC(=O)N[C@@H](Cc1ccccc1)[C@H](O)C(=O)N1CSC(C)(C)[C@H]1C(=O)NCC1CC1` [Example B27, (R)-3-{(2S,3S)-3-[2-(2,6-Dimethyl-phenoxy)-ethanoylamino]-2-hydroxy-4-phenyl-butanoyl}-5,5-dimethyl-thiazolidine-4-carboxylic acid cyclopropylmethyl-amide] showed a Ki in experiment [1] of 0.5 nM. The pEC50 in experiment [2] is 6.30.
In turn, `CC1(C)SCN(C(=O)[C@@H](O)[C@H](Cc2ccccc2)NC(=O)c2cccc3c2CCN3)[C@@H]1C(=O)NCC1CC1` [Example B28, 2,3-Dihydro-1H-indole-4-carboxylic acid {(1S,2S)-1-benzyl-3-[(R)-4-(cyclopropylmethyl-carbamoyl)-5,5-dimethyl-thiazoldin-3-yl]-2-hydroxy-3-oxo-propyl}-amide] displayed an inhibition constant Ki in experiment [1] of 4.2 nM. Moreover, the pEC50 in experiment [2] was 6.14.
On to `CC1(C)SCN(C(=O)[C@@H](O)[C@H](Cc2ccccc2)NC(=O)c2cccc3c2CCN3)[C@@H]1C(=O)N[C@H]1CCOc2ccccc21` [Example B29, 2,3-Dihydro-1H-indole-4-carboxylic acid {(1S,2S)-1-benzyl-3-[(R)-4-((S)-chroman-4-ylcarbamoyl)-5,5-dimethyl-thiazolidin-3-yl]-2-hydroxy-3-oxo-propyl}-amide], for which the inhibitory constant (Ki) in experiment [1] was 0.82 nM. The pEC50 in experiment [2] was 7.20.
Taken in the same sequence, the figures for `CC1(C)SCN(C(=O)[C@@H](O)[C@H](Cc2ccccc2)NC(=O)CSc2nc[nH]n2)[C@@H]1C(=O)N[C@H]1CCOc2ccccc21` [Example B31, (R)-3-{(2S,3S)-2-Hydroxy-4-phenyl-3-[2-(1H-[1,2,4]triazol-3-ylsulfanyl)-ethanoylamino]-butanoyl}-5,5-dimethyl-thiazolidine-4-carboxylic acid (S)-chroman-4-ylamide] were 4.7 nM and under 6.00.
Taken in the same sequence, the figures for `C#CCNC(=O)[C@H]1N(C(=O)[C@@H](O)[C@H](Cc2ccccc2)NC(=O)c2cccc3c2CCN3)CSC1(C)C` [Example B34, 2,3-Dihydro-1H-indole-4-carboxylic acid [(1S,2S)-1-benzyl-3-((R)-5,5-dimethyl-4-prop-2-ynylcarbamoyl-thiazoldin-3-yl)-2-hydroxy-3-oxo-propyl]-amide] were 1.2 nM and 6.41.
For `C#CCNC(=O)[C@H]1N(C(=O)[C@@H](O)[C@H](Cc2ccccc2)NC(=O)c2cccc3[nH]ncc23)CSC1(C)C` [Example B35, 1-H-indazole-4-carboxylic acid [1-benzyl-3-(5,5-dimethyl-4-prop-2-ynylcarbamoyl-thiazolidin-3-yl)-2-hydroxy-3-oxo-propyl]-amide] the same measures were 11 nM and 6.25.
`C#CCNC(=O)[C@H]1N(C(=O)[C@@H](O)[C@H](Cc2ccccc2)NC(=O)COc2c(C)cccc2C)CSC1(C)C` [Example B36, (R)-3-{(2S,3S)-3-[2-(2,6-Dimethyl-phenoxy)-ethanoylamino]-2-hydroxy-4-phenyl-butanoyl}-5,5-dimethyl-thiazolidine-4-carboxylic acid prop-2-ynylamide] registered an inhibition constant Ki in experiment [1] of under 0.1 nM. Also, in experiment [2], the pEC50 was 6.28.
Taken in the same sequence, the figures for `CC1(C)SCN(C(=O)[C@@H](O)[C@H](Cc2ccccc2)NC(=O)c2cccc3[nH]ncc23)[C@@H]1C(=O)NCc1ccco1` [Example B37, 1-H-indazole-4-carboxylic acid (1-benzyl-3-{4[(furan-2-ylmethyl)-carbamoyl]-5,5-dimethyl-thiazolidin-3-yl}-2-hydroxy-3-oxo-propyl)-amide] were 7.4 nM and 6.28.
Taken in the same sequence, the figures for `Cc1cccc(C)c1OCC(=O)N[C@@H](Cc1ccccc1)[C@H](O)C(=O)N1CSC(C)(C)[C@H]1C(=O)NCc1ccco1` [Example B38, (R)-3-{(2S,3S)-3-[2-(2,6-Dimethyl-phenoxy)-ethanoylamino]-2-hydroxy-4-phenyl-butanoyl}-5,5-dimethyl-thiazolidine-4-carboxylic acid (furan-2-ylmethyl)-amide] were 0.16 nM and 6.22.
Taken in the same sequence, the figures for `CC1(C)SCN(C(=O)[C@@H](O)[C@H](Cc2ccccc2)NC(=O)c2cccc3c2CCN3)[C@@H]1C(=O)NCc1ccco1` [Example B39, 2,3-Dihydro-1H-indole-4-carboxylic acid ((1S,2S)-1-benzyl-3-{(R)-4-[(furan-2-ylmethyl)-carbamoyl]-5,5-dimethyl-thiazolidin-3-yl}-2-hydroxy-3-oxo-propyl)-amide] were 1.9 nM and 6.43.
For the compound `CC1(C)SCN(C(=O)[C@@H](O)[C@H](Cc2ccccc2)NC(=O)[C@@H]2CCCO2)[C@@H]1C(=O)NCc1ccco1` [Example B40, (R)-3-{(2S,3S)-2-Hydroxy-4-phenyl-3-[((S)-1-tetrahydro-furan-2-yl-methanoyl)-amino]-butanoyl}-5,5-dimethyl-thiazolidine-4-carboxylic acid (furan-2-ylmethyl)-amide], the Ki in experiment [1] amounted to 15.1 nM. Further, the negative-log EC50 (pEC50) in experiment [2] is under 6.00.
For `CC1(C)SCN(C(=O)[C@@H](O)[C@H](Cc2ccccc2)NC(=O)c2cccc3c2CCN3)[C@@H]1C(=O)N[C@@H]1C=CCCC1` [Example B41, 2,3-Dihydro-1H-indole-carboxylic acid {(1S,2S)-1-benzyl-3-[(R)-4-((S)-cyclohex-2-enylcarbamoyl)-5,5-dimethyl-thiazolidin-3-yl]-2-hydroxy-3-oxo-propyl}-amide] the same measures were 0.11 nM and 6.57.
As to `CC1(C)SCN(C(=O)[C@@H](O)[C@H](Cc2ccccc2)NC(=O)c2cccc3c2CCN3)[C@@H]1C(=O)N[C@H]1CCc2ccccc21` [Example B42, 2,3-Dihydro-1H-indole-4carboxylic acid {(1S,2S)-1-benzyl-2-hydroxy-3-[(R)-4-((S)-indan-1-ylcarbamoyl)-5,5-dimethyl-thiazolidin-3-yl]-3-oxo-propyl}-amide], in experiment [1], the inhibition constant Ki was found to be 0.13 nM. Besides, the negative logarithm of the EC50 (pEC50) in experiment [2] is 6.81.
For `Cc1ccc(C(=O)N[C@@H](Cc2ccccc2)[C@H](O)C(=O)N2CSC(C)(C)[C@H]2C(=O)N[C@H]2CCc3ccccc32)c(C)c1O` [Example B43, (R)-3-((2S,3S)-2-Hydroxy-3-{[1-(3-hydroxy-2,4-dimethyl-phenyl)-methanoyl]-amino}-4-phenyl-butanoyl)-5,5-dimethyl-thiazolidine-4-carboxylic acid (S)-indan-1-ylamide], the inhibition constant Ki in experiment [1] is under 0.1 nM. Moreover, the pEC50 in experiment [2] is 6.43.
For `CC1(C)SCN(C(=O)[C@@H](O)[C@H](Cc2ccccc2)NC(=O)c2cccc3c2CCN3)[C@@H]1C(=O)NC[C@H]1CCCO1` [Example B44, 2,3-Dihydro-1H-indole-4-carboxylic acid [(1S,2S)-1-benzyl-3-((R)-5,5-dimethyl-4-{[(R)-1-(tetrahydro-furan-2-yl)methyl]-carbamoyl}-thiazolidin-3-yl)-2-hydroxy-3-oxo-propyl]-amide] the same measures were 4.8 nM and 6.18.
In the case of `CCCNC(=O)[C@H]1N(C(=O)[C@@H](O)[C@H](Cc2ccccc2)NC(=O)c2cccc3c2CCN3)CSC1(C)C` [Example B45, 2,3-Dihydro-1H-indole-4-carboxylic acid [(1S,2S)-1-benzyl-3-((R)-5,5-dimethyl-4-propylcarbamoyl-thiazoldin-3-yl)-2-hydroxy-3-oxo-propyl]-amide], in experiment [1], the Ki was 1.1 nM. Further, in experiment [2], the pEC50 was 6.24.

The values are drawn from patent US7094909B2, “HIV protease inhibitors, compositions containing the same, their pharmaceutical uses and materials for their synthesis” (priority 2001, dated 2006).
